In the supplement of paper PMC10307832:

Columns and labels:
Assay in all cases: relative viability (nuclei count vs DMSO), 5 days (fraction); higher = more cells survive
[1] = compound: O=C(/C=C/c1ccccc1)NC(NC(=S)Nc1cccc2cccnc12)C(Cl)(Cl)Cl [Salubrinal] + C[C@@H](Oc1cc(-c2cnn(C3CCNCC3)c2)cnc1N)c1c(Cl)ccc(F)c1Cl [Crizotinib] (partner 1 µM)
Summary of the method: (§1)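 Each reported value is a median over duplicate plates. It expresses relative viability: treated-well nuclei count divided by vehicle-well nuclei count. Lung cancer cell lines in 1536-well plates were dosed by pin tool a day after seeding, alone with one drug or with a fixed anchor-drug dose plus five library-drug doses (not always all listed) in √10 steps, and nuclei were counted after 5 days.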

[2] = compound: Cc1ccc2nc(NCCN)c3ncc(C)n3c2c1 + O=C(c1cc(Cc2n[nH]c(=O)c3ccccc23)ccc1F)N1CCN(C(=O)C2CC2)CC1 [Olaparib] (partner 8 µM)
Summary of the method: as §1

[3] = compound: O=C(/C=C/c1ccccc1)NC(NC(=S)Nc1cccc2cccnc12)C(Cl)(Cl)Cl [Salubrinal] + CC(=O)Nc1cccc(-n2c(=O)n(C3CC3)c(=O)c3c(Nc4ccc(I)cc4F)n(C)c(=O)c(C)c32)c1 [Trametinib] (partner 0.02 µM)
Summary of the method: as §1

[4] = compound: O=C(/C=C/c1ccccc1)NC(NC(=S)Nc1cccc2cccnc12)C(Cl)(Cl)Cl [Salubrinal] + COc1cccc2cc(-c3nc([C@H]4CC[C@H](C(=O)O)CC4)n4ncnc(N)c34)[nH]c12 [OSI-027] (partner 0.5 µM)
Summary of the method: as §1

Cell Line | relative viability ([1]; first compound 0.08 µM) | relative viability ([1]; first compound 0.253 µM) | relative viability ([1]; first compound 0.8 µM) | relative viability ([1]; first compound 2.53 µM) | relative viability ([1]; first compound 8 µM) | relative viability ([2]; first compound 0.04 µM) | relative viability ([2]; first compound 0.1265 µM) | relative viability ([2]; first compound 0.4 µM) | relative viability ([2]; first compound 1.265 µM) | relative viability ([2]; first compound 4 µM) | relative viability ([3]; first compound 0.08 µM) | relative viability ([3]; first compound 0.253 µM) | relative viability ([3]; first compound 0.8 µM) | relative viability ([3]; first compound 2.53 µM) | relative viability ([3]; first compound 8 µM) | relative viability ([4]; first compound 0.08 µM) | relative viability ([4]; first compound 0.253 µM) | relative viability ([4]; first compound 0.8 µM) | relative viability ([4]; first compound 2.53 µM) | relative viability ([4]; first compound 8 µM)
201T | 0.997 | 1 | 1.05 | 1.01 | 1.02 | 0.945 | 0.839 | 0.804 | 0.829 | 0.823 | 0.741 | 0.726 | 0.788 | 0.728 | 0.716 | 0.933 | 0.799 | 0.863 | 0.782 | 0.732
A549 | 0.864 | 0.491 | 0.902 | 0.702 | 0.695 | 0.409 | 0.406 | 0.333 | 0.317 | 0.301 | – | – | – | – | – | – | – | – | – | –
A-427 | 0.896 | 0.899 | 1.05 | 0.85 | 0.895 | 0.723 | 0.672 | 0.693 | 0.711 | 0.63 | 0.782 | 0.812 | 0.791 | 0.689 | 0.764 | 0.409 | 0.516 | 0.568 | 0.437 | 0.452
ABC-1 | 1.23 | 0.919 | 1.22 | 1.25 | 1.02 | 0.781 | 0.785 | 0.639 | 0.691 | 1.04 | – | – | – | – | – | 0.513 | 0.578 | 0.712 | 0.626 | 0.371
BEN | 1.02 | 0.734 | 0.996 | 0.858 | 0.852 | 1.17 | 1.18 | 1.07 | 1.04 | 1.24 | 1.07 | 1.03 | 1.07 | 1.14 | 1.12 | 0.322 | 0.407 | 0.318 | 0.309 | 0.324
CAL-12T | 0.661 | 0.484 | 0.806 | 0.48 | 0.446 | 0.77 | 0.738 | 0.827 | 0.804 | 0.625 | 0.378 | 0.406 | 0.327 | 0.244 | 0.269 | 0.444 | 0.541 | 0.606 | 0.542 | 0.454
COR-L23 | 0.749 | 0.775 | 0.699 | 0.563 | 0.492 | 0.348 | 0.351 | 0.397 | 0.321 | 0.328 | 0.7 | 0.734 | 0.736 | 0.581 | 0.518 | 0.868 | 0.547 | 1.1 | 0.794 | 0.71
COR-L 105 | 0.962 | 0.624 | 0.76 | 0.772 | 0.689 | 0.656 | 0.883 | 0.665 | 0.533 | 0.642 | 0.466 | 0.559 | 0.407 | 0.477 | 0.449 | 0.74 | 0.632 | 0.758 | 0.735 | 0.613
Calu-6 | 0.949 | 0.644 | 0.898 | 0.821 | 0.728 | 0.574 | 0.601 | 0.6 | 0.578 | 0.367 | – | – | – | – | – | – | – | – | – | –
ChaGo-K-1 | 1.25 | 0.927 | 1.44 | 1.1 | 0.929 | 0.411 | 0.458 | 0.412 | 0.426 | 0.402 | 0.968 | 0.858 | 0.882 | 0.905 | 0.802 | 0.731 | 0.479 | 0.581 | 0.612 | 0.435
EBC-1 | 0.207 | 0.214 | 0.22 | 0.211 | 0.18 | 0.679 | 0.681 | 0.72 | 0.602 | 0.546 | – | – | – | – | – | – | – | – | – | –
EKVX | 1.16 | 0.811 | 0.971 | 0.974 | 1.07 | 0.941 | 0.82 | 0.775 | 0.706 | 0.737 | 0.332 | 0.47 | 0.565 | 0.303 | 0.358 | 0.701 | 0.641 | 0.657 | 0.454 | 0.673
EMC-BAC-2 | 0.749 | 0.676 | 0.811 | 0.721 | 0.76 | 0.519 | 0.502 | 0.507 | 0.456 | 0.488 | 0.948 | 0.878 | 0.937 | 0.906 | 0.973 | 0.364 | 0.359 | 0.41 | 0.384 | 0.427
EPLC-272H | 0.976 | 0.839 | 0.887 | 1.03 | 0.949 | 0.869 | 0.814 | 0.98 | 0.686 | 0.778 | 0.305 | 0.298 | 0.298 | 0.314 | 0.298 | 0.297 | 0.286 | 0.293 | 0.258 | 0.249
H3255 | 1.16 | 0.823 | 1.12 | 0.804 | 0.775 | 0.561 | 0.482 | 0.516 | 0.59 | 0.47 | 0.744 | 0.55 | 0.832 | 0.582 | 0.597 | 0.689 | 0.553 | 0.748 | 0.603 | 0.603
HARA | 1.21 | 0.911 | 1.03 | 1.14 | 0.868 | 0.73 | 0.782 | 0.791 | 0.759 | 0.365 | 0.715 | 0.873 | 0.631 | 0.621 | 0.702 | 0.539 | 0.557 | 0.582 | 0.524 | 0.462
HCC-15 | 0.984 | 0.651 | 0.946 | 0.883 | 0.785 | 0.648 | 0.752 | 0.7 | 0.75 | 0.622 | 0.444 | 0.36 | 0.379 | 0.378 | 0.381 | 0.722 | 0.665 | 0.824 | 0.666 | 0.644
